Experimental findings from publication PMC10257182, “Discovery of senolytics using machine learning” (Nature Communications, 2023) are described below.

pIC50: −log10 of the molar value. Like-named read-outs stand apart in the source and are kept apart here.

The test system of the assay is non-senescent control IMR90 ER:RAS cells. In words: Nuclei count (Hoechst, high content imaging) senolytic assay, OIS model, non-senescent control cells. Conditions: Homo sapiens; for viability at 0.02188 µM: log (dose) [M] -7.66, 72 h. It is filed as cell-based, human. An excerpt: To test for senolytic activity, we compared the effect of each compound on the total cell number (automated high content image-based analysis of total number of nuclei per well) in non-senescent and senescent IMR90 ER:RAS cultures treated with the top hits from the computational screen (Figs. 2e and 3a–d and Supplementary Fig. 4a–c). The drop in cell number compared to untreated controls is indicated by the nuclei count and reflects cell death[13],[15]. As positive control, we employed ouabain, a cardiac glycoside with well characterised senolytic activity.
We performed experimental validation of the compounds with z-score > 8 (Fig. 2e). […] We employed two cellular models of senescence: one of OIS and a second one of TIS. For the OIS case, we utilised IMR90 ER:RAS cells with 4-OHT at 100 nM. […] For the TIS model, we used A549 cells with etoposide at 100 μM. The exposure of the cells to etoposide lasted 48 h, after which period the cells were cultivated for a further three days with normal media.
IMR90 (CCL-186) human foetal lung fibroblasts and A549 (CCL-185) human lung adenocarcinoma cells were obtained from the American Type Culture Collection (ATCC, Manassas, VA). The cell lines were confirmed to be mycoplasma negative (Lonza MycoAlert, cat #LT07-118). IMR90 ER:RAS is a derivative of IMR90 cells expressing a switchable version of oncogenic H-Ras[84]. IMR90 ER:RAS and A549 cells were maintained in Dulbecco’s Modified Eagle Medium (DMEM, ThermoFisher) supplemented with foetal bovine serum (10%), L-glutamine (2 mM, ThermoFisher), and antibiotic-antimycotic solution (1%, ThermoFisher) and incubated under standard tissue culture conditions (37 °C and 5% CO2). For induction of the senescent phenotype, IMR90-ER:RAS cells were cultured in hydroxytamoxifen (4-OHT) (Sigma) added media at 100 nM final concentration. IMR90 were kept in culture for over 27 passages for replicative senescence. Cells were tested for mycoplasma on a regular basis.
Cells were seeded (50 μL per well) into 384-well plates (IMR90 ER:RAS cells in Nunc Optical Bottom Polybase Microplates [#142761, Thermo Scientific, Rochester, NY] and A549 cells in CELLSTAR Cell Culture Microplates [#781091, Greiner Bio-One, Kremsmünster, Austria]). Cells were incubated under standard tissue culture conditions for 24 h before the addition of compounds. Passage 14 IMR90 ER:RAS cells were seeded at 1300 cells per well in the control condition, and at 1600 cells per well in the senescent case. Passage 34 A549 cells were seeded at 7000 cells per well in the control condition, and at 10,000 cells per well in the senescent case.
Dose response plates were prepared with a DMSO control and a 10-point […] concentration range, and added to the compounds using a D300e digital dispenser (Tecan Trading AG, Switzerland) at a final concentration of between 10 μM and 10 nM. Every screened condition was carried out in triplicate. After 72 h of incubation with exposure to the compounds, cells were fixed by the addition of an equal volume of formaldehyde (8%, 50 μL; #BP531-500, Fisher Bioreagents, Fisher Scientific, Loughborough, Leicestershire) to the existing media, incubated at room temperature (30 min), and washed three times in phosphate-buffered saline (PBS). Cells were then permeabilised in Triton-X100 (0.1%, 50 μL) and incubated at room temperature (30 min) followed by three more washes with PBS.
Cells were stained with Hoechst 33342 for nuclei count (excitation/emission wavelength at 387/447 […], DAPI channel, original concentration at 10 mg/ml, final concentration at 2 μg/ml; H1399, Molecular Probes, Eugene, OR). The staining solution was prepared in bovine serum albumin solution (10%). The staining solution was added to each well (30 μL) and incubated in the dark at room temperature (30 min), followed by three washes with PBS and no final aspiration. Plates were foil sealed.

Where [1] appears, read: IMR-90, 72 h, Control, log (dose) [M] -5, 72 h, mean n=3 (Fig 3C), read-out: Mean % Cell Survival.
[2] abbreviates: IMR-90, 72 h, Control, log (dose) [M] -5.33, 72 h, mean n=3 (Fig 3C), read-out: Mean % Cell Survival.
Setting [3] is: IMR-90, 72 h, Control, log (dose) [M] -5.66, 72 h, mean n=3 (Fig 3C), read-out: Mean % Cell Survival.
[4] abbreviates: IMR-90, 72 h, Control, log (dose) [M] -6, 72 h, mean n=3 (Fig 3C), read-out: Mean % Cell Survival.
Where [5] appears, read: IMR-90, 72 h, Control, log (dose) [M] -6.33, 72 h, mean n=3 (Fig 3C), read-out: Mean % Cell Survival.
[6] abbreviates: IMR-90, 72 h, Control, log (dose) [M] -6.66, 72 h, mean n=3 (Fig 3C), read-out: Mean % Cell Survival.
Where [7] appears, read: IMR-90, 72 h, Control, log (dose) [M] -7, 72 h, mean n=3 (Fig 3C), read-out: Mean % Cell Survival.
Setting [8] is: IMR-90, 72 h, Control, log (dose) [M] -7.33, 72 h, mean n=3 (Fig 3C), read-out: Mean % Cell Survival.
Where [9] appears, read: IMR-90, 72 h, Control, mean n=3 (Fig 3C), read-out: Mean % Cell Survival.
The mark [10] stands for this setting: IMR-90, 72 h, Control, log (dose) [M] -8, 72 h, mean n=3 (Fig 3C), read-out: Mean % Cell Survival.

On to `CO[C@H]1C[C@@H]2CC[C@@H](C)[C@@](O)(O2)C(=O)C(=O)N2CCCC[C@H]2C(=O)O[C@H]([C@H](C)C[C@@H]2CC[C@@H](OP(C)(C)=O)[C@H](OC)C2)CC(=O)[C@H](C)/C=C(\C)[C@@H](O)[C@@H](OC)C(=O)[C@H](C)C[C@H](C)/C=C/C=C/C=C/1C` [Ridaforolimus, ridaforolimus, reference compound], for which the viability at 10 µM came out at 75.2% under setting [1] and 119% (IMR-90, Control, log (dose) [M] -5, read-out: % Cell Survival). For the same molecule, the viability at 4.677 µM under setting [2] came to 82.6%. For the same molecule, under setting [3], the viability at 2.188 µM worked out at 82.3%. For the same molecule, the viability at 1 µM under setting [4] is 77.9%. For the same molecule, under setting [5], the viability at 0.4677 µM worked out at 87.6%. Moreover, the viability at 0.2188 µM under setting [6] stood at 91.5%. The viability at 0.1 µM is, setting by setting: under setting [7], 77.4%; (IMR-90, Control, log (dose) [M] -7, read-out: % Cell Survival) 97%. The viability at 0.04677 µM amounted to 106% under setting [8] and 115% (IMR-90, Control, log (dose) [M] -7.33, read-out: % Cell Survival). Also, the viability at 0.02188 µM under setting [9] is 88.9%. For the same molecule, the viability at 0.01 µM was found to be 92.5% under setting [10] and 113% (IMR-90, Control, log (dose) [M] -8, read-out: % Cell Survival). The viability at 2.19 µM (IMR-90, Control, log (dose) [M] -5.66, read-out: % Cell Survival) is 107%. Further, the viability at 0.468 µM (IMR-90, Control, log (dose) [M] -6.33, read-out: % Cell Survival) was determined as 105%. The viability at 0.219 µM (IMR-90, Control, log (dose) [M] -6.66, read-out: % Cell Survival) was determined as 109%. For the same molecule, where the note is “IMR-90, Control, log (dose) [M] -7.66, read-out: % Cell Survival”, the viability at 0.0219 µM is 113%.
Consider `COc1cc(O)c2c(=O)cc(-c3ccc(OC)c(-c4c(O)cc(O)c5c(=O)cc(-c6ccc(O)cc6)oc45)c3)oc2c1` [Ginkgetin, ginkgetin], for which the viability at 10 µM under setting [1] stood at 37.6%. For the same molecule, the viability at 4.677 µM by setting is: under setting [2], 87%; (IMR-90, control, log (dose) [M] -5.33, individual replicates (Fig 3D), read-out: % Cell Survival) 83%. For the same molecule, the viability at 2.188 µM reads like this: under setting [3], 87.7%; (IMR-90, control, log (dose) [M] -5.66, individual replicates (Fig 3D), read-out: % Cell Survival) 83.6%. Moreover, the viability at 1 µM came to 87.1% under setting [4] and 78.9% (IMR-90, control, log (dose) [M] -6, individual replicates (Fig 3D), read-out: % Cell Survival). The viability at 0.4677 µM runs as follows: under setting [5], 85.5%; (IMR-90, control, log (dose) [M] -6.33, individual replicates (Fig 3D), read-out: % Cell Survival) 82.5%. Further, the viability at 0.2188 µM is, setting by setting: under setting [6], 86.2%; (IMR-90, control, log (dose) [M] -6.66, individual replicates (Fig 3D), read-out: % Cell Survival) 81.2%. In addition, the viability at 0.1 µM stood at 85.1% under setting [7] and 74.3% (IMR-90, control, log (dose) [M] -7, individual replicates (Fig 3D), read-out: % Cell Survival). In addition, the viability at 0.04677 µM under setting [8] turned out to be 87.3%. Moreover, the viability at 0.02188 µM under setting [9] is 88.8%. Further, the viability at 0.01 µM under setting [10] came to 93% and the viability at 0.01 µM (IMR-90, control, log (dose) [M] -8, individual replicates (Fig 3D), read-out: % Cell Survival) is 85.3%. The pIC50 (IMR-90, OIS model, non-senescent IMR90 ER:RAS, nuclei count, 72 h) was 4.59.

In general, pIC50 refers to the IC50 on a negative log10 scale, so that one unit is a factor of ten. Low readings indicate a large IC50, high ones a small IC50.
